In US9120824B2, “Cyclic amine derivatives as EP4 receptor agonists” (ROTTAPHARM BIOTECH S.R.L., priority 2011, dated 2015):
pEC50: −log10 of the molar value.

Tests used:
[1] = target: T1, hEP4 receptors (human EP4/HEK293 transfectant) (Homo sapiens, UniProt P35408); assay: [3H]-PGE2 membrane binding assay; conditions: [3H]-PGE2 1 nM, human EP4/HEK293 membranes, compounds 1 nM to 1 μM; Ki by Cheng-Prusoff, pKi = -log10 Ki (M)
T1 construct: expressed in transfected cells; host or cells: HEK-293, stably transfected; membrane fraction
T1 sequence (P35408 whole entry): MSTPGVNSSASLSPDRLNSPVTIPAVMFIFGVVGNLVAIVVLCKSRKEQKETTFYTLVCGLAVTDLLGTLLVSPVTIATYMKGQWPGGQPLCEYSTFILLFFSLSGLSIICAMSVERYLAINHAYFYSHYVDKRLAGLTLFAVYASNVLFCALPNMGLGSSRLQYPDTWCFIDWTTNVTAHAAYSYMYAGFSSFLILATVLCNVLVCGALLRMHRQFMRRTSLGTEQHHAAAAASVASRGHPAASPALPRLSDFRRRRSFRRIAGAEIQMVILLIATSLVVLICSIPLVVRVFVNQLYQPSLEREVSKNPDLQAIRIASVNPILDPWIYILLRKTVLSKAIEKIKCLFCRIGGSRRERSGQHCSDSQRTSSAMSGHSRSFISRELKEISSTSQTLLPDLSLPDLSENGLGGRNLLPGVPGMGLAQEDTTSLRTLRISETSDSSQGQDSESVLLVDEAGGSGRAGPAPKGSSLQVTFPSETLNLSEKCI
From the text: (§1) Stable Expression of Human EP4 Receptors in the Human Embryonic Kidney (HEK293) Cell Line
(§2) The cDNA clone of human EP4 receptor (NM_000958.2) was obtained from Invitrogen™: Ultimate™ ORF Clone Collection-Clone ID IOH46525. The coding sequence was subcloned in expression vector pcDNATM6.2/V5-DEST by Gateway technology (Invitrogen™).
(§3) Human embryonic kidney cells (HEK-293) were stably transfected with expression vector for human EP4 receptor in according to the method described in FuGENE®6 Transfection Reagent's manual (Roche Applied Science®).
(§4) Preparation of Membrane Fraction:
(§5) The EP4 transfected cells were grown in Dulbecco's modified Eagle's medium containing 10% fetal bovine serum and 10 μg/ml Blasticidin S HCl (selection medium) at 37° C. in a humidified atmosphere of 5% CO2 in air.
(§6) For the membrane preparation, cells in flask were harvested by hypotonical/mechanical lysis with chilled (4° C.) TE buffer (5 mM TRIS, 5 mM etylenediamine tetra-acetic acid (EDTA), pH 7.4).
(§7) Cells were detached and lysed with 10 ml of hypotonic lysis buffer and by scraping. The cell lysate was vortexed for 30 sec and centrifuged at 40000×g at 4° C. for 22 min.
a) Membrane Binding Assay[3H]-Prostaglandin E2
The membrane pellet was resuspended in the same buffer (5 mM TRIS, 5 mM ethylenediamine tetra-acetic acid (EDTA), pH 7.4), and protein concentration was determined by Bradford method (Bio-Bad® assay).
This membrane preparation was stored at −80° C. freezer until use for binding assay.
([^3H]-PGE2) membranes binding assays toward hEP4 receptors (human EP4/HEK293 transfectant, see above) and hEP2 receptors (human EP2/HEK293 transfectant, purchased from PerkinElmer Inc) were performed in 10 mM MES-KOH buffer pH6, containing 10 mM MgCl2 and 1 mM CaCl2 for EP4 binding assay or 50 mM Tris-Cl, BSA 0.5% for EP2 binding assay (according to supplier indication).
Ten microgram of protein from membrane fractions were incubated in a total volume of 0.1 ml (EP4) or 0.2 ml (EP2) with 1 nM (EP4) or 3 nM (EP2) [^3H]-PGE2 (PerkinElmer Inc, 171 Ci/mmol). In both assays to determine the total binding or non specific binding, 1% DMSO or 1 μM prostaglandin E2 (EP4) or 100 μM (EP2) were added to reaction mixtures, respectively. Incubation was conducted in a polypropylene 96 multiwell for 90 min (EP4) or 60 min (EP2) at room temperature prior to separation of the bound and free radioligand by vacuum manifold rapid filtration on glass fiber filters (Unifilter GFB96, PerkinElmer Inc) pre-soaked in 0.3% polyethyleneimine. Filters were washed with ice cold buffer pH 7.4 (50 mM HEPES, NaCl 500 mM, BSA 0.1% for EP4 binding assay or 50 mM Tris-Cl for EP2 binding assays) and the residual [^3H]-PGE2 binding determined by solid scintillation counter (TopCount, PerkinElmer Inc).
The affinity (Ki) of each compound was calculated according to the Cheng-Prousoff equation: Ki=IC50/(1+([C]/Kd)). Results were expressed as pKi (−log 10 Ki (M)

human EP4 receptor = target: T2, human EP4 receptor (Homo sapiens, UniProt P35408); assay: cAMP assay on human EP4 membrane of transfected cells (AlphaScreen); format: biochemical; conditions: human EP4 HEK293 cell membranes
T2 construct: expressed in transfected cells; host or cells: HEK-293, stably transfected; membrane fraction
T2 sequence (P35408 whole entry): as above
From the text: as §1, §2, §3, §4, §5, §6, §7
b) cAMP Assay on Human EP4 Membrane of Transfected Cells.
The assay is based on the competition between endogenous cAMP and exogenously added biotinylated cAMP. The capture of cAMP is achieved by using a specific antibody conjugated to […] beads.
Cell membranes prepared as described above, were resuspended in 1 ml stimulation buffer (HBSS 1×+BSA 0.1%+IBMX 0.5 mM+HEPES 5 mM+MgCl2 10 mM+GTP 1 nM+GDP 10 μM+ATP 100 μM-pH 7.4). Cell membranes were dispensed into white 384-well microplates at final concentration of 1 μg/well and used for the determination of cAMP with the alphascreen cAMP functional assay (EnVision-PerkinElmer). Cell membrane/anti-cAMP Acceptor beads mix (5 μl) and a mixture of analysed compounds (dissolved in 100% DMSO to a final maximal concentration of 0.01% DMSO)/PGE2 (5 μl) were incubated at room temperature (22-23° C.) for 30 min in the dark. The Biotinylated-cAMP and donor beads (15 μl) were dispensed into each well to start the competition reaction. After 1 h incubation RT (22-23° C.) in the dark the plate was read using EnVision platform to determine the cAMP level (excitation: 680 nm; emission:520,620 nm).
cAMP standard curve (concentration range from 1×10-6 to 1×10-11 M in log intervals) with a negative control (no cAMP)
a positive control:forskolin 10 μM
Antagonism studies were performed stimulating HEK293 cell membrane with PGE2 3 nM. The AlphaScreen signal is plotted as a function of log concentration of cAMP and EC50 is determined. EC50 value is calculated by […].

Structure (SMILES)	Ki [1]	pEC50 (human EP4 receptor)
C[C@H](NC(=O)[C@H]1CCCCN1Cc1cccc(C(F)(F)F)c1)c1ccc(C(=O)O)cc1 [Example E5, lithium 4-((S)-1-((R)-1-(3-(trifluoromethyl)benzyl)piperidine-2-carboxamido)ethyl)benzoate]	3.16e-08 M	9.00
O=C(O)c1ccc(C2(NC(=O)[C@H]3CCCCN3Cc3cccc(C(F)(F)F)c3)CC2)cc1 [Example E9, lithium (R)-4-(1-(1-(3-(trifluoromethyl)benzyl)piperidine-2-carboxamido)cyclopropyl)benzoate]	7.94e-09 M	8.54
Cc1cc(CN2CCCC[C@@H]2C(=O)NC2(c3ccc(C(=O)O)cc3)CC2)ccc1F [Example E12, (R)-4-(1-(1-(4-fluoro-3-methylbenzyl)piperidine-2-carboxamido)cyclopropyl)benzoic acid]	3.16e-08 M	8.22
O=C(O)c1ccc(C2(NC(=O)[C@H]3CCCCN3Cc3ccc(F)c(C(F)(F)F)c3)CC2)cc1 [Example E13, lithium (R)-4-(1-(1-(4-fluoro-3-(trifluoromethyl)benzyl)piperidine-2-carboxamido)cyclopropyl)benzoate]	1e-08 M	8.10
C[C@H](NC(=O)[C@H]1CCCN1Cc1cccc(C(F)(F)F)c1)c1ccc(C(=O)O)cc1 [Example E15, lithium 4-((S)-1-((R)-1-(3-(trifluoromethyl)benzyl)pyrrolidine-2-carboxamido)ethyl)benzoate]	2e-08 M	7.87
C[C@H](NC(=O)[C@H]1C[C@@H](O)CN1Cc1cccc(C(F)(F)F)c1)c1ccc(C(=O)O)cc1 [Example E19, lithium 4-((S)-1-((2R,4R)-4-hydroxy-1-(3-(trifluoromethyl)benzyl)pyrrolidine-2-carboxamido)ethyl)benzoate]	3.98e-08 M	10.00
